The source of these data is patent US8785499B2 (priority 2009, dated 2014).

≈ marks a conversion by molar mass, not a printed value.

Assay [1] has as its system E. coli K-12 BW25113 (ΔnadA). Briefly: microbe, parasite or virus in culture. The format is cell-based, Escherichia coli. The following applies: Escherichia coli, BW25113, read-out: MIC50 E. coli.
The target of assay [2] is ecNadD (Escherichia coli (strain K12), UniProt P0A752). Briefly: biochemical. The following applies: apparent value.
The subject of assay [3] is B. subtilis 168. Briefly: microbe, parasite or virus in culture. The assay is classed as cell-based. The following applies: Bacillus subtilis, 168, read-out: MIC50 B. subt.
Assay [4] relates to B. anthracis sterne. Briefly: microbe, parasite or virus in culture. The format is cell-based. The following applies: Bacillus anthracis, read-out: MIC50 B. anth.
In assay [5] the test system is E. coli ΔnadA, nadD+ (overexpressing NadD). Briefly: Antibacterial assay: on-target versus off-target activity (NadD overexpression vs gapA control). The assay is classed as cell-based, Escherichia coli. The following applies: E. coli overexpressing nadD vs gapA control strain.
Assay [6] concerns the target baNadD (Bacillus anthracis, UniProt C3L5T6). As to the kind of experiment: biochemical. The format is biochemical. The following applies: read-out: INHIBITION (%) B. anthracis.

Sequence of baNadD (C3L5T6 whole entry, looked up): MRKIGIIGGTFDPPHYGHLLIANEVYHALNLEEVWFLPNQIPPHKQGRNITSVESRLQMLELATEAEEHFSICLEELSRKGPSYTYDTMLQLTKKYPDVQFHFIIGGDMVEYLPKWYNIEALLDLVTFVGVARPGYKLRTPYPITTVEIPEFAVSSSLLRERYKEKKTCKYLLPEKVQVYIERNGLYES

As to `O=C(CCC(=O)Nc1cccc(Cl)c1)N/N=C/c1c2ccccc2cc2ccccc12` [01_02], the MIC50 in assay [1] is greater than 80 µM. Moreover, the Ki in assay [2] (substrate ATP varied, 0.5 mM NaMN fixed) stood at 5 ± 1 µM; in assay [2] (substrate NaMN varied, 0.5 mM ATP fixed), 8 ± 3 µM.
As for `O=C(CCCC(=O)Nc1ccc(Br)cc1)N/N=C/c1c2ccccc2cc2ccccc12` [01_03], the values for the MIC50 in assay [1], in assay [3] and in assay [4] were greater than 80 µM, 10 µM (≈ 4.88 µg/mL) and 15 µM (≈ 7.33 µg/mL), respectively. In addition, in assay [5], the “effect of NadD overexpression on antibacterial activity (on-target vs off-target)” value is given as “partially or totally suppresses action”.
The matching figures for `Nc1c(C(=O)Nc2ccc(Cl)cc2F)sc2nc(-c3cccs3)ccc12` [03_15]: 160 µM (≈ 64.6 µg/mL), 10 µM (≈ 4.04 µg/mL), 10 µM (≈ 4.04 µg/mL) and “partially or totally suppresses action”.
What is called inhibition is the share of the control response that was lost under treatment. As to `Nc1c(C(=O)Nc2cccc(Cl)c2)sc2nc(-c3ccncc3)ccc12` [03_17], the inhibition at 50 µM in assay [6] was 64%. Besides, the MIC50 in assay [1] is 80 µM (≈ 30.5 µg/mL); in assay [3] it was greater than 160 µM; in assay [4], greater than 160 µM.
